For the test, the target named is T1, DC-SIGN (Homo sapiens, UniProt Q9NNX6).
T1 sequence (Q9NNX6 62-404): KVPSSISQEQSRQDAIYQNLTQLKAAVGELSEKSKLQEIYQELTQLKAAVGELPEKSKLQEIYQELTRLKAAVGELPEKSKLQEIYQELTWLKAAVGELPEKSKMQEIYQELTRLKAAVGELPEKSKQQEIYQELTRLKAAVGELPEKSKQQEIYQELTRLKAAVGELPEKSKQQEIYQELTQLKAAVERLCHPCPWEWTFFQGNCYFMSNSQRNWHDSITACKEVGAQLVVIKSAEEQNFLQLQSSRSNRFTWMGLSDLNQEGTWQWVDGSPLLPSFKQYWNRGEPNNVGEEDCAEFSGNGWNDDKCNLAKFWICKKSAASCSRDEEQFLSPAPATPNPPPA
The test is described as follows: free-glycan inhibition of DC-SIGN binding to HMG microarrays.

The IC50 is the point on the concentration scale where inhibition reaches its midpoint.

As for `C[C@@H]1O[C@@H](O[C@H]2[C@H](O[C@H]3[C@H](O)[C@@H](O)C(O)O[C@@H]3CO)O[C@H](CO)[C@H](O)[C@@H]2O)[C@@H](O)[C@H](O)[C@@H]1O` (stereo partly shown) [2′-FL, 2′-fucosyllactose], the IC50 is roughly 1000 µM.

The values are drawn from publication PMC4875834 (The Biochemical journal, 2016).
